Measured values taken from ChEMBL document CHEMBL1125967, “Total synthesis of L-2,2-difluoro-2-deoxy-MYO-inositol 1,4,5-trisphosphate, a potent inhibitor of the enzymes of d-MYO-inositol 1,4,5-trisphosphate metabolism” (Bioorg Med Chem Lett, 1991).

Key:
[1] = target: T1, Inositol polyphosphate-5-phosphatase A (Homo sapiens, UniProt Q14642); assay: Compound was evaluated for binding affinity towards Inositol-1,4,5-trisphosphate 5-phosphatase
T1 sequence (Q14642 whole entry): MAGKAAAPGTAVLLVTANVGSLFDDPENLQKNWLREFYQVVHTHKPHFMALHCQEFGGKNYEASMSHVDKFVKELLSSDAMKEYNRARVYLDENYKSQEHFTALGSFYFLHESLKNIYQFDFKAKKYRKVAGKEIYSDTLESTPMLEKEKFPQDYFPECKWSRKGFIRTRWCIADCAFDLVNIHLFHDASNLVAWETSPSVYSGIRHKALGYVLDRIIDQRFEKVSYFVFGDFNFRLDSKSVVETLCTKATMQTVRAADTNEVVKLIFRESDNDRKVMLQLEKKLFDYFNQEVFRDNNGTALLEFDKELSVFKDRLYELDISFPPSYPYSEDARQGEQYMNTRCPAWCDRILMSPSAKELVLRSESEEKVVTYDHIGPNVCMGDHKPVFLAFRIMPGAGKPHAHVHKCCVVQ

[2] = target: Inositol 1,4,5-trisphosphate receptor (Homo sapiens, UniProt Q14571+Q14573+Q14643); assay: Compound was evaluated for its effective dose to inhibit the calcium release as a measure of affinity for Inositol 1,4,5-trisphosphate receptor; assay type: functional
[3] = Inhibition of inositol-trisphosphate phosphorylation; set-up: species or system Rattus norvegicus
[4] = target: Inositol 1,4,5-trisphosphate-gated calcium channel ITPR3 (Homo sapiens, UniProt Q14573); assay: Compound was evaluated for its effective dose to inhibit the calcium release as a measure of affinity for Ins(1,4,5)P3 receptor; assay type: functional
Sequence of Inositol 1,4,5-trisphosphate-gated calcium channel ITPR3 (Q14573 whole entry): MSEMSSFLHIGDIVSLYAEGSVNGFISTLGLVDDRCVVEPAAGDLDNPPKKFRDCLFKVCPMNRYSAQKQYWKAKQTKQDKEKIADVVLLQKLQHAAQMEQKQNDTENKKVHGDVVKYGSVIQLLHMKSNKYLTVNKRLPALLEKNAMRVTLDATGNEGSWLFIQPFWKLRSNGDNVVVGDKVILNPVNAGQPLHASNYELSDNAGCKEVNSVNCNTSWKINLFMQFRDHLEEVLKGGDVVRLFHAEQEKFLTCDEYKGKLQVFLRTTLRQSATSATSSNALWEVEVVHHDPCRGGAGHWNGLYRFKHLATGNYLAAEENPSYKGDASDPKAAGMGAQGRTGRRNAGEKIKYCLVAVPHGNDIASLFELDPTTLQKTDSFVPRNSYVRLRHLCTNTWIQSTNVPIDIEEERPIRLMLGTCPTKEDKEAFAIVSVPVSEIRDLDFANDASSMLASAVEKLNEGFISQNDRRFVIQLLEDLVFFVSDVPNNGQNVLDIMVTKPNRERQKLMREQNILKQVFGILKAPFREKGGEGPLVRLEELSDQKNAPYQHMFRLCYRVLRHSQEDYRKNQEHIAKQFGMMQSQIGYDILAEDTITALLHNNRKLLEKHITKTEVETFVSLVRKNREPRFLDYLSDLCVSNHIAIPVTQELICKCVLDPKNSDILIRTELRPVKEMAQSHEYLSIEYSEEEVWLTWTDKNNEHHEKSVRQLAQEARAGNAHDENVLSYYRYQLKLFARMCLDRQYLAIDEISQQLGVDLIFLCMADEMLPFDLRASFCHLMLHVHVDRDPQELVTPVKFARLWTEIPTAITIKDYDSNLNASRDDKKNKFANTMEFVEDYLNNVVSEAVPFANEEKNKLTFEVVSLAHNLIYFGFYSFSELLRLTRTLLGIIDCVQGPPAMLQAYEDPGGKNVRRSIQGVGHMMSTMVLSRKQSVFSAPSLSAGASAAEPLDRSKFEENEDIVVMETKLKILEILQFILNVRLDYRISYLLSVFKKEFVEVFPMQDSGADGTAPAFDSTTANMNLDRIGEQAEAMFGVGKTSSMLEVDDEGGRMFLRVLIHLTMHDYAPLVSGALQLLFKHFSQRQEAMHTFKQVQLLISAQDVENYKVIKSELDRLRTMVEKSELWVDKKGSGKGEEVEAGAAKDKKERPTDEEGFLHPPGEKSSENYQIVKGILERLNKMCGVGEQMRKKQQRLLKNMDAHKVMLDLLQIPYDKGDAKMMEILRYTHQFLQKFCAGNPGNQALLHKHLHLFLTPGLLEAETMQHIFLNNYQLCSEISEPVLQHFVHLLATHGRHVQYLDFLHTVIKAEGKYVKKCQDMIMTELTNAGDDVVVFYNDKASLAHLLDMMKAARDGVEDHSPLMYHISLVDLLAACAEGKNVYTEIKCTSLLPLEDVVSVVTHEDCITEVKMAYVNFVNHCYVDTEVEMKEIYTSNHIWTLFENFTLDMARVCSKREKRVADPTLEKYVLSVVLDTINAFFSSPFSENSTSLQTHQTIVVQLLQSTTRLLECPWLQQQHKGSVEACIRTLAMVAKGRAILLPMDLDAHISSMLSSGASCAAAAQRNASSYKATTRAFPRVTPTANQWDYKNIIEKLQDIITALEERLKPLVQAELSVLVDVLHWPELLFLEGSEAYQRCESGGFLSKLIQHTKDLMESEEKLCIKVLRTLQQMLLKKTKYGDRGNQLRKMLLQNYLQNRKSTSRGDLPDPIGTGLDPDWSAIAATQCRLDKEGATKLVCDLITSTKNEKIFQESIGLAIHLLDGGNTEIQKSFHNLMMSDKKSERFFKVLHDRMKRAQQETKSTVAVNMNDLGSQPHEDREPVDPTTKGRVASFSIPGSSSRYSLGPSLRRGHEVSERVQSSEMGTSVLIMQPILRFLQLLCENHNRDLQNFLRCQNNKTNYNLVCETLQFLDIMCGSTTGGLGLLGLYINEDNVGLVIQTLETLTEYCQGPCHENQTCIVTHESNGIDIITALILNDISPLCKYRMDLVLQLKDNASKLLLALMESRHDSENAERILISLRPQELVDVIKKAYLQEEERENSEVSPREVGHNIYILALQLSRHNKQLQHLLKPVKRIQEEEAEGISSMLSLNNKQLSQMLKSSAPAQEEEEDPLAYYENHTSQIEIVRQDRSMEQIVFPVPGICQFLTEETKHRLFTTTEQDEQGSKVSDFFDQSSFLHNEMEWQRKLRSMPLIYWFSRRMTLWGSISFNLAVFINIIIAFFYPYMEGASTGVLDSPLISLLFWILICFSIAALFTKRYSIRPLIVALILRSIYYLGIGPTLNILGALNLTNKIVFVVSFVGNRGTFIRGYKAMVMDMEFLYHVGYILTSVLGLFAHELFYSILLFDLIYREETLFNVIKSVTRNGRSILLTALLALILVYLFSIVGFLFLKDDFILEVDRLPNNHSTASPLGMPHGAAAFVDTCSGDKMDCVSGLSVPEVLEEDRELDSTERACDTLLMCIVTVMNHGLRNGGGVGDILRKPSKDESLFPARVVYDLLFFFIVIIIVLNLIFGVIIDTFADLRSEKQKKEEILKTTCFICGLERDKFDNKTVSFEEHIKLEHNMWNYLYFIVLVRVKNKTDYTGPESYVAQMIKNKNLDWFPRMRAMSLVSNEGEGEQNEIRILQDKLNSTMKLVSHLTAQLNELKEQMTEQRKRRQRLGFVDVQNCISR

Ki [1] [µM] | EC50 [2] [µM] | Ki [3] [µM] | EC50 [4] [µM] | Structure (SMILES)
26 | 53 | 11.5 |  | O=P(O)(O)OC1C(O)C(OP(=O)(O)O)C(F)(F)C(O)C1OP(=O)(O)O (stereo in doubt; L-(4b))
 | 0.41 |  |  | O=P(O)(O)OC1C(O)C(OP(=O)(O)O)C(F)(F)C(O)C1OP(=O)(O)O (stereo in doubt)
 |  |  | 0.21 | O=P(O)(O)OC1C(O)C(OP(=O)(O)O)C(F)(F)C(O)C1OP(=O)(O)O (stereo not given)
